Measured values from PubChem BioAssay (NCI).
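Assay format: 96-well plates, 48-hour exposure. Abbreviation: GI50, concentration required for 50% inhibition of growth. Definition used: TGI = concentration required for complete inhibition of growth.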

Assays:
Test in all cases: NCI-60 cell line screen, 48 h
SK-OV-3 ovarian = system: SK-OV-3 ovarian
SK-MEL-5 melanoma = system: SK-MEL-5 melanoma
HOP-92 NSCLC = system: HOP-92 NSCLC
HS 578T breast = system: HS 578T breast
UO-31 renal = system: UO-31 renal
HCT-116 colon = system: HCT-116 colon
OVCAR-3 ovarian = system: OVCAR-3 ovarian
UACC-257 melanoma = system: UACC-257 melanoma
SF-295 CNS = system: SF-295 CNS
IGROV1 ovarian = system: IGROV1 ovarian
M14 melanoma = system: M14 melanoma
MDA-MB-231 breast = system: MDA-MB-231 breast
BT-549 breast = system: BT-549 breast
SK-MEL-2 melanoma = system: SK-MEL-2 melanoma
A549 NSCLC = system: A549 NSCLC
SF-539 CNS = system: SF-539 CNS
LOX IMVI melanoma = system: LOX IMVI melanoma
786-0 renal = system: 786-0 renal
NCI-H23 lung = system: NCI-H23 lung
SK-MEL-28 melanoma = system: SK-MEL-28 melanoma
HCC-2998 colon = system: HCC-2998 colon
SW-620 colon = system: SW-620 colon
RXF 393 renal = system: RXF 393 renal
ACHN renal = system: ACHN renal
MCF7 breast = system: MCF7 breast
COLO 205 colon = system: COLO 205 colon
U251 CNS = system: U251 CNS
EKVX NSCLC = system: EKVX NSCLC
K-562 leukemia = system: K-562 leukemia
RPMI-8226 leukemia = system: RPMI-8226 leukemia
DU-145 prostate = system: DU-145 prostate
OVCAR-4 ovarian = system: OVCAR-4 ovarian
NCI-H226 lung = system: NCI-H226 lung
NCI/ADR-RES ovarian = system: NCI/ADR-RES ovarian
NCI-H460 lung = system: NCI-H460 lung
OVCAR-5 ovarian = system: OVCAR-5 ovarian
T-47D breast = system: T-47D breast
KM12 colon = system: KM12 colon
PC-3 prostate = system: PC-3 prostate
HCT-15 colon = system: HCT-15 colon
A498 renal = system: A498 renal
SN12C renal = system: SN12C renal
SNB-19 CNS = system: SNB-19 CNS
NCI-H522 lung = system: NCI-H522 lung
MALME-3M melanoma = system: MALME-3M melanoma
OVCAR-8 ovarian = system: OVCAR-8 ovarian
HOP-62 NSCLC = system: HOP-62 NSCLC
CAKI-1 renal = system: CAKI-1 renal
HL-60(TB) leukemia = system: HL-60(TB) leukemia
MDA-MB-435 = system: MDA-MB-435
SF-268 CNS = system: SF-268 CNS
UACC-62 melanoma = system: UACC-62 melanoma
SNB-75 CNS = system: SNB-75 CNS
HT29 colon = system: HT29 colon

CC(=O)Nc1cc(C(c2ccccc2)c2ccccc2)cc(C(c2ccccc2)c2ccccc2)c1C
GI50 (SK-OV-3 ovarian): > 100 µM
TGI (SK-OV-3 ovarian): > 100 µM
GI50 (SK-MEL-5 melanoma): 5.51 µM
TGI (SK-MEL-5 melanoma): > 100 µM
GI50 (HOP-92 NSCLC): 4.68 µM
TGI (HOP-92 NSCLC): > 100 µM
GI50 (HS 578T breast): 28 µM
TGI (HS 578T breast): > 100 µM
GI50 (UO-31 renal): 3.54 µM
TGI (UO-31 renal): > 100 µM
GI50 (HCT-116 colon): 3.28 µM
TGI (HCT-116 colon): > 100 µM
GI50 (OVCAR-3 ovarian): 7.33 µM
TGI (OVCAR-3 ovarian): > 100 µM
GI50 (UACC-257 melanoma): 8.72 µM
TGI (UACC-257 melanoma): > 100 µM
GI50 (SF-295 CNS): 2.64 µM
TGI (SF-295 CNS): 7.49 µM
GI50 (IGROV1 ovarian): 32.5 µM
TGI (IGROV1 ovarian): > 100 µM
GI50 (M14 melanoma): > 100 µM
TGI (M14 melanoma): > 100 µM
GI50 (MDA-MB-231 breast): 4.21 µM
TGI (MDA-MB-231 breast): > 100 µM
GI50 (BT-549 breast): 8.2 µM
TGI (BT-549 breast): > 100 µM
GI50 (SK-MEL-2 melanoma): 5.18 µM
TGI (SK-MEL-2 melanoma): > 100 µM
GI50 (A549 NSCLC): 4.95 µM
TGI (A549 NSCLC): > 100 µM
GI50 (SF-539 CNS): > 100 µM
TGI (SF-539 CNS): > 100 µM
GI50 (LOX IMVI melanoma): 7.98 µM
TGI (LOX IMVI melanoma): > 100 µM
GI50 (786-0 renal): > 100 µM
TGI (786-0 renal): > 100 µM
GI50 (NCI-H23 lung): 6.22 µM
TGI (NCI-H23 lung): > 100 µM
GI50 (SK-MEL-28 melanoma): > 100 µM
TGI (SK-MEL-28 melanoma): > 100 µM
GI50 (HCC-2998 colon): 14.7 µM
TGI (HCC-2998 colon): > 100 µM
GI50 (SW-620 colon): 7.25 µM
TGI (SW-620 colon): > 100 µM
GI50 (RXF 393 renal): 27.5 µM
TGI (RXF 393 renal): > 100 µM
GI50 (ACHN renal): 8.71 µM
TGI (ACHN renal): > 100 µM
GI50 (MCF7 breast): 4.77 µM
TGI (MCF7 breast): > 100 µM
GI50 (COLO 205 colon): 7.36 µM
TGI (COLO 205 colon): > 100 µM
GI50 (U251 CNS): 7.63 µM
TGI (U251 CNS): > 100 µM
GI50 (EKVX NSCLC): 3.23 µM
TGI (EKVX NSCLC): > 100 µM
GI50 (K-562 leukemia): 2.83 µM
TGI (K-562 leukemia): > 100 µM
GI50 (RPMI-8226 leukemia): 1.88 µM
TGI (RPMI-8226 leukemia): 7.67 µM
GI50 (DU-145 prostate): > 100 µM
TGI (DU-145 prostate): > 100 µM
GI50 (OVCAR-4 ovarian): 21.7 µM
TGI (OVCAR-4 ovarian): > 100 µM
GI50 (NCI-H226 lung): 6.8 µM
TGI (NCI-H226 lung): > 100 µM
GI50 (NCI/ADR-RES ovarian): 6.01 µM
TGI (NCI/ADR-RES ovarian): > 100 µM
GI50 (NCI-H460 lung): 7.49 µM
TGI (NCI-H460 lung): > 100 µM
GI50 (OVCAR-5 ovarian): > 100 µM
TGI (OVCAR-5 ovarian): > 100 µM
GI50 (T-47D breast): 3.18 µM
TGI (T-47D breast): > 100 µM
GI50 (KM12 colon): 6.19 µM
TGI (KM12 colon): > 100 µM
GI50 (PC-3 prostate): 4.13 µM
TGI (PC-3 prostate): > 100 µM
GI50 (HCT-15 colon): 7.12 µM
TGI (HCT-15 colon): > 100 µM
GI50 (A498 renal): 6.24 µM
TGI (A498 renal): > 100 µM
GI50 (SN12C renal): 27.5 µM
TGI (SN12C renal): > 100 µM
GI50 (SNB-19 CNS): > 100 µM
TGI (SNB-19 CNS): > 100 µM
GI50 (NCI-H522 lung): 6.39 µM
TGI (NCI-H522 lung): > 100 µM
GI50 (MALME-3M melanoma): 9.59 µM
TGI (MALME-3M melanoma): > 100 µM
GI50 (OVCAR-8 ovarian): > 100 µM
TGI (OVCAR-8 ovarian): > 100 µM
GI50 (HOP-62 NSCLC): > 100 µM
TGI (HOP-62 NSCLC): > 100 µM
GI50 (CAKI-1 renal): > 100 µM
TGI (CAKI-1 renal): > 100 µM
GI50 (HL-60(TB) leukemia): 3.1 µM
TGI (HL-60(TB) leukemia): > 100 µM
GI50 (MDA-MB-435): 6.81 µM
TGI (MDA-MB-435): > 100 µM
GI50 (SF-268 CNS): 8.2 µM
TGI (SF-268 CNS): > 100 µM
GI50 (UACC-62 melanoma): 5.86 µM
TGI (UACC-62 melanoma): > 100 µM
GI50 (SNB-75 CNS): 21.4 µM
TGI (SNB-75 CNS): > 100 µM
GI50 (HT29 colon): 8.26 µM
TGI (HT29 colon): > 100 µM
